The values below are quoted from earlier work in patent US11414421B2, “Process for the preparation of ribociclib succinate and its novel crystalline forms thereof” (NATCO PHARMA LTD, priority 2018, dated 2022).

Read-outs that look alike come from different tables or passages of the source.

As to `CN(C)C(=O)c1cc2cnc(Nc3ccc(N4CCNCC4)cn3)nc2n1C1CCCC1.O=C(O)CCC(=O)O` [Ribociclib succinate, 7-cyclopentyl-N,N-dimethyl-2-{[5-(piperazin-1-yl)pyridin-2-yl]amino}-7H-pyrrolo [2,3-d]pyrimidine-6-carboxamide succinate (1/1)], the absorbs moisture result by setting is: (relative humidity 0-90-0% RH) “up to 2.0%”; (second value, printed as 0-90-0% RH) “up to 0.5%”.
